Measured values: article PMC7618104, “The GLP-1 analogue, exendin-4, improves bone material properties and strength through a central relay in ovariectomized mice” (American journal of physiology. Endocrinology and metabolism, 2025)

System: mouse bone marrow-derived mesenchymal stem cell (BMMSC) cultures
Assay: Bone marrow-derived mesenchymal stem cell osteogenic differentiation
Format: cell-based, mouse (BALB/cJRj)
Conditions: 1 nM exendin-4, osteogenic medium, n = 5 independent experiments
Procedure: Femurs and tibias were isolated from 12-week-old female BALB/c mice (BALB/cJRj; Janvier Labs, Saint-Berthevin, France). Bones were rapidly dissected and cleared of soft tissue. The distal epiphyses were removed, and the marrow cavities were flushed with sterile PBS to collect bone marrow cells. Cells were suspended in growth medium composed of α-MEM supplemented with 10% fetal bovine serum, 100 U/mL penicillin-streptomycin, and 0.25 μL/mL Fungizone (Thermo Fisher Scientific), and seeded into 6-well plates at a density of 2.5 × 10^6 cells/well. Cultures were maintained at 37°C in a humidified incubator with 5% CO2. Cells remained undisturbed for 5 days to promote adherence. […]
On day 14, cells were washed with PBS and subjected to three freeze-thaw cycles. […] Enzymatic activity was measured using the fluorescent substrate 4-methylumbelliferyl phosphate (Sigma-Aldrich) as previously described ([38]).
On day 21, cells were fixed with 3.7% (w/v) formaldehyde in PBS for 10 min, rinsed with PBS, and stained with 1.5% (w/v) Alizarin Red S for 5 min. […] Bound dye was extracted using 10% acetic acid, neutralized with 10% ammonium hydroxide, and absorbance was measured at 550 nm using a spectrophotometer. […]

exendin-4 [Ex-4]
alkaline phosphatase (ALP) activity (day 14): did not result in any significant increase | extracellular matrix mineralization (Alizarin Red S) (day 21): did not result in any significant increase
